Experimental data taken from article PMC10667265 (Scientific Reports, 2023).
Where two headings read alike, the source gives them in different places. Where no end group is shown, it is not given here.

Columns and labels:
potato = conditions: used as control for Pep-13; cited from earlier work
Method: Potato plants (Solanum tuberosum cv. Désirée) were cultivated in sterile tissue culture in a phytochamber (16 h light, ~ 140 µE, 22 °C). Plants were transferred to steam-sterilized soil and grown for 4 weeks under long day conditions in a phytochamber (16 h light, ~ 140 µE, 60% humidity, 20 °C). PAMP treatment was performed with leaf disks that were cut out from 4-week-old potato plants with a biopsy puncher (4 mm diameter) and placed with the abaxial side onto the surface of 250 µl of water in a 96-well plate. The plate was incubated overnight at 22 °C in the dark. Water from the wells was re ...

[1] = infiltrated into the abaxial side of leaves of potato plants; methanolic extracts of leaf disks; conditions: potato (Solanum tuberosum cv. Désirée), 20 °C, up to 8 h
[2] = for amidated StPIP1_1 remaining: two independent experiments, n = 16 (Fig. 6A)
[3] = exogenous application to leaves; cited from earlier work
Text: In Arabidopsis, PIPs are encoded by 11 genes. […] Recently, the PAMP-induced peptides StPIP1 to StPIP4 were described in potato (Solanum tuberosum[23]).

Question: With VANQPVRGFKVYE [W2A] as the substance, how does the “elicitor activity relative to Pep-13” value (potato) read?
Answer: Its value is “nearly inactive”.

Question: For VWNQPVRGFKVYE-NH2, which cleaved bond [1] is on record?
Answer: The cleaved bond was “E-NH2, within 30 min”.

Question: With VWNQPVRGFKVYE [acidic form of Pep-13] as the substance, how does the “time within which the acidic form was degraded” value ([2]; after infiltration of 100 µM amidated Pep-13 into potato leaves, LC-MS (Fig. 6D)) read?
Answer: The value was no more than 1 h.

Question: With “VWNQPVRGFKVYE-NH2 [Pep-13, reference compound]” as the substance, how does the “time within which the amidated peptide was converted to the acidic form” value ([2]; 100 µM amidated Pep-13 infiltrated into potato leaves, LC-MS, two independent experiments (Fig. 6C)) read?
Answer: The value was no more than 30 min.

Question: With RLPSGPSPRGPGH-NH2 [StPIP1_1] as the substance, how does the “amidated StPIP1_1 remaining” value ([2]; 100 µM amidated peptide infiltrated into leaves of phytochamber-grown potato plants, 30 min after infiltration, methanolic leaf extracts, LC-MS) read?
Answer: The value was 20%.

Question: What about the “amidated StPIP1_1 remaining” value ([2]; 100 µM amidated peptide infiltrated into potato leaves, 1 h after infiltration, LC-MS) of the same substance?
Answer: The value was 10%.

Question: Which ROS production [3] does the source give for TLGGIKAGPSPGEGHKVVNSHHQ [StPIP1] here?
Answer: The ROS production was “does not induce”.

Question: And the “increases in the cytosolic Ca2+ concentrations” value [3]?
Answer: The value was “does not induce”.

Question: With RLPSGPSPRGPGH-NH2 as the substance, how does the cleaved bond [1] read?
Answer: The cleaved bond was “H-NH2, within minutes”.
